Experimental data taken from ChEMBL document CHEMBL1208739, “Synthesis and SAR of azolopyrimidines as potent and selective dipeptidyl peptidase-4 (DPP4) inhibitors for type 2 diabetes” (Bioorg Med Chem Lett, 2010).

What was measured:
Dipeptidyl peptidase 9 = Dipeptidyl peptidase 9 (Homo sapiens, UniProt Q86TI2); assay: Inhibition of human DPP89
Dipeptidyl peptidase 8 = Dipeptidyl peptidase 8 (Homo sapiens, UniProt Q6V1X1); assay: Inhibition of human DPP8
Cytochrome P450 1A2 = biological target: T1, Cytochrome P450 1A2 (Homo sapiens, UniProt P05177); assay: inhibition of CYP1A2; type: ADME
T1 sequence (P05177 whole entry): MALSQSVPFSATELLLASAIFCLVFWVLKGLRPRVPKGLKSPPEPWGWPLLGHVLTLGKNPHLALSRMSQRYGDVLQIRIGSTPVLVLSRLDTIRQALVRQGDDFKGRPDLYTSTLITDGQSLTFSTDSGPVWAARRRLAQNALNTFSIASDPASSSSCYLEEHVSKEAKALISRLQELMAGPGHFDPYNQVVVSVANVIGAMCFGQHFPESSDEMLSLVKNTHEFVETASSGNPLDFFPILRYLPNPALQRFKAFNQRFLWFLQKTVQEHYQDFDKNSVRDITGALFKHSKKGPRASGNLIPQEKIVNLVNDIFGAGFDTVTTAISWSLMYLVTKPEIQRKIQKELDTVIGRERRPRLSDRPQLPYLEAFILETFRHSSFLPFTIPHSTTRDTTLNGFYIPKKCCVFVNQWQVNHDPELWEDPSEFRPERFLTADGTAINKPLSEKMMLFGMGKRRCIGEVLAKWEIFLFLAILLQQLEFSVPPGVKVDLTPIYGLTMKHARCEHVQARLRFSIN

[1] = biological target: Voltage-gated inwardly rectifying potassium channel KCNH2 (Homo sapiens, UniProt Q12809); assay: Inhibition of human ERG
Sequence of Voltage-gated inwardly rectifying potassium channel KCNH2 (Q12809 whole entry): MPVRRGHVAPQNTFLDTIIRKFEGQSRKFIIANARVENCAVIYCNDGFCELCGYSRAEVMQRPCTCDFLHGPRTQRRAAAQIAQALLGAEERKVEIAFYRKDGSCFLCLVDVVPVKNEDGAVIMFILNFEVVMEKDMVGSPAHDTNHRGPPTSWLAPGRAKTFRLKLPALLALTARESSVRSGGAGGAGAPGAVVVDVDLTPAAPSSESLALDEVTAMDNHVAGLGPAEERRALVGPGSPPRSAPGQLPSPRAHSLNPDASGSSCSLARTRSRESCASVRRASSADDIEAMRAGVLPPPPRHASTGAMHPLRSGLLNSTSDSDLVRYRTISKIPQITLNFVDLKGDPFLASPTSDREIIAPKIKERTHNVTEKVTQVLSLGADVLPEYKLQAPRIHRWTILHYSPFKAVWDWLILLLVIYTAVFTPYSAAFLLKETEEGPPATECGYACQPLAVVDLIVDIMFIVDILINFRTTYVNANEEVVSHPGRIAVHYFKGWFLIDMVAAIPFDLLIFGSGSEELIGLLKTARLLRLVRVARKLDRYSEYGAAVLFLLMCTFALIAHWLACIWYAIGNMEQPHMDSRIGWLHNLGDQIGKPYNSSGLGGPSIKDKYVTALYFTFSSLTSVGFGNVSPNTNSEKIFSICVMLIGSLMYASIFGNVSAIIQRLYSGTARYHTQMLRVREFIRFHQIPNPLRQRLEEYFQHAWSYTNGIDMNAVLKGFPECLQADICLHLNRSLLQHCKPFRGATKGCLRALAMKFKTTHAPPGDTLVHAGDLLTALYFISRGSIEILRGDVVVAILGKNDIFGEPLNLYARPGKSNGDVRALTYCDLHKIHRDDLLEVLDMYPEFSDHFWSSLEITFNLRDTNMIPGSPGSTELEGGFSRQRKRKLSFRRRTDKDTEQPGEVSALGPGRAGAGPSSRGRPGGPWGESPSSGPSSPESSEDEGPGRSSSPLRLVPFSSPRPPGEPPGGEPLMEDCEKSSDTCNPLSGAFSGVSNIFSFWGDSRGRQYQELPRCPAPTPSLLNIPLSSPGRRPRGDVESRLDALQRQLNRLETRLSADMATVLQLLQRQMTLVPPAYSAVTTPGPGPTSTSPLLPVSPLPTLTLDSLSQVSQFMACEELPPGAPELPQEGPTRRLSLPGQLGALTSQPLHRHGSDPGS

Cytochrome P450 2C19 = Cytochrome P450 2C19 (Homo sapiens, UniProt P33261); assay: inhibition of CYP2C19; type: ADME
Sequence of Cytochrome P450 2C19 (P33261 whole entry): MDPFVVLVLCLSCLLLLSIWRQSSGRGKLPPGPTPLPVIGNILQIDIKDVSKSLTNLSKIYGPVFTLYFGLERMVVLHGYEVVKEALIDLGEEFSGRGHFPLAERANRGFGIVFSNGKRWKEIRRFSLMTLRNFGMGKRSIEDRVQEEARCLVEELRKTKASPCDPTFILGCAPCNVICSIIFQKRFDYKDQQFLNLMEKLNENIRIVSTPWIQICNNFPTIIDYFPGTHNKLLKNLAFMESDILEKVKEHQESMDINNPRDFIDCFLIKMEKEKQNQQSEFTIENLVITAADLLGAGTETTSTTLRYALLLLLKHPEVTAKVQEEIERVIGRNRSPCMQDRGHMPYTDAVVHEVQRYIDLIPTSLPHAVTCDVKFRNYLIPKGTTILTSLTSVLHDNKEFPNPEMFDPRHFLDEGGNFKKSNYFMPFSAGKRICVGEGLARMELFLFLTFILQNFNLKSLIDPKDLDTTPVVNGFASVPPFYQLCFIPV

Cytochrome P450 2C9 = Cytochrome P450 2C9 (Homo sapiens, UniProt P11712); assay: inhibition of CYP2C9; type: ADME
Sequence of Cytochrome P450 2C9 (P11712 whole entry): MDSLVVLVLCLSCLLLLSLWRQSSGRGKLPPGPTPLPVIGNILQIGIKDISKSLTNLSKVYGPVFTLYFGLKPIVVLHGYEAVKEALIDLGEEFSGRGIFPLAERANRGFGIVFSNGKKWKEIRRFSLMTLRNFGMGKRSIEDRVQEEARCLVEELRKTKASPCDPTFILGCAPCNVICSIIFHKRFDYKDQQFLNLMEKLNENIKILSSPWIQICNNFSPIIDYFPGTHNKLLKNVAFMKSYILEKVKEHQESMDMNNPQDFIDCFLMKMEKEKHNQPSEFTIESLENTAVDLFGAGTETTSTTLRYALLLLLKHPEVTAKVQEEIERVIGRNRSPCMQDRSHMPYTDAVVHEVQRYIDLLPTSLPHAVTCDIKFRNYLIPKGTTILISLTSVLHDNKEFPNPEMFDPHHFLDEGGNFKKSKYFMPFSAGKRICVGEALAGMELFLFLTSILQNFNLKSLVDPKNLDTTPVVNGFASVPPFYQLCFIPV

Cytochrome P450 3A4 = Cytochrome P450 3A4 (Homo sapiens, UniProt P08684); assay: inhibition of CYP3A4; type: ADME
Sequence of Cytochrome P450 3A4 (P08684 whole entry): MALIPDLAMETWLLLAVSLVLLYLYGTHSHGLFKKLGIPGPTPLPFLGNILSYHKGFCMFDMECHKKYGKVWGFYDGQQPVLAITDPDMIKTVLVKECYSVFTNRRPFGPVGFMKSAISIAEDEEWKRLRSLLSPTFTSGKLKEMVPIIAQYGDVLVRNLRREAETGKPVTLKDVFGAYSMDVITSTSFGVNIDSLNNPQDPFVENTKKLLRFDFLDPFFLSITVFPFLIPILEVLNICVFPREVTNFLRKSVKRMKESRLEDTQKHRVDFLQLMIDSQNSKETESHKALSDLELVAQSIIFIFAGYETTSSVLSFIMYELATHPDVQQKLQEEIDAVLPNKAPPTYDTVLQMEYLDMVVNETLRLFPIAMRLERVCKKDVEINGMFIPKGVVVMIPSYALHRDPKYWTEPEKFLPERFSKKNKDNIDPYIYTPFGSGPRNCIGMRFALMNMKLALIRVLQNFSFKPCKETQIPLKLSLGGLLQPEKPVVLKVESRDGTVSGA

Mus musculus [2] = assay: Antidiabetic activity in ob/ob mouse assessed as increase in mean insulin level at 3 umol/kg, po measured after 15 mins of glucose challenge by oral glucose tolerance test; type: functional
Mus musculus [3] = assay: Antidiabetic activity in ob/ob mouse assessed as increase in mean insulin level at 10 umol/kg, po measured after 15 mins of glucose challenge by oral glucose tolerance test; type: functional

Sequence of Dipeptidyl peptidase 8 (Q6V1X1 whole entry): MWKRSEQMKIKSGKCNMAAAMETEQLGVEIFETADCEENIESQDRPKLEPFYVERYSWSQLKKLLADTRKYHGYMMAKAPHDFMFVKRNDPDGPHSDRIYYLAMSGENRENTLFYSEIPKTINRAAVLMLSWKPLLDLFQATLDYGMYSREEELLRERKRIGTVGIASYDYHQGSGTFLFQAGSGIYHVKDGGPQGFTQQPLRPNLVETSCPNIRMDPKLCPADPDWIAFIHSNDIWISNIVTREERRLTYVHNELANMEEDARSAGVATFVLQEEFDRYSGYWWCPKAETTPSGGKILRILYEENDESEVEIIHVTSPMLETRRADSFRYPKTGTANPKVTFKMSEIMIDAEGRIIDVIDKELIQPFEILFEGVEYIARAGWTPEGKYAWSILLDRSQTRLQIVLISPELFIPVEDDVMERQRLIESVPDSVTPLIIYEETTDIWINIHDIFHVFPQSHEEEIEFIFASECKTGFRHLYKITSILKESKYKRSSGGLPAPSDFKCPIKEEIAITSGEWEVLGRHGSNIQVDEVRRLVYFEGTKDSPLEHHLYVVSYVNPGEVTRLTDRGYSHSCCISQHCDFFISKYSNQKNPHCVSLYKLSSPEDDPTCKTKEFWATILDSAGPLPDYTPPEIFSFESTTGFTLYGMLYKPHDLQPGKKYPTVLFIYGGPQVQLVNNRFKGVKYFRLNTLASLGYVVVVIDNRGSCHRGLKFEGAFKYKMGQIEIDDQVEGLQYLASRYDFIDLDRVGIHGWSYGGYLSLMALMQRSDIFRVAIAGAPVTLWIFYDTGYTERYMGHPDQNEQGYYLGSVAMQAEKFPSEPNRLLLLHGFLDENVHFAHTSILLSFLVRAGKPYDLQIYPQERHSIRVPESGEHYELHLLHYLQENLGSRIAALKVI
Sequence of Dipeptidyl peptidase 9 (Q86TI2 whole entry): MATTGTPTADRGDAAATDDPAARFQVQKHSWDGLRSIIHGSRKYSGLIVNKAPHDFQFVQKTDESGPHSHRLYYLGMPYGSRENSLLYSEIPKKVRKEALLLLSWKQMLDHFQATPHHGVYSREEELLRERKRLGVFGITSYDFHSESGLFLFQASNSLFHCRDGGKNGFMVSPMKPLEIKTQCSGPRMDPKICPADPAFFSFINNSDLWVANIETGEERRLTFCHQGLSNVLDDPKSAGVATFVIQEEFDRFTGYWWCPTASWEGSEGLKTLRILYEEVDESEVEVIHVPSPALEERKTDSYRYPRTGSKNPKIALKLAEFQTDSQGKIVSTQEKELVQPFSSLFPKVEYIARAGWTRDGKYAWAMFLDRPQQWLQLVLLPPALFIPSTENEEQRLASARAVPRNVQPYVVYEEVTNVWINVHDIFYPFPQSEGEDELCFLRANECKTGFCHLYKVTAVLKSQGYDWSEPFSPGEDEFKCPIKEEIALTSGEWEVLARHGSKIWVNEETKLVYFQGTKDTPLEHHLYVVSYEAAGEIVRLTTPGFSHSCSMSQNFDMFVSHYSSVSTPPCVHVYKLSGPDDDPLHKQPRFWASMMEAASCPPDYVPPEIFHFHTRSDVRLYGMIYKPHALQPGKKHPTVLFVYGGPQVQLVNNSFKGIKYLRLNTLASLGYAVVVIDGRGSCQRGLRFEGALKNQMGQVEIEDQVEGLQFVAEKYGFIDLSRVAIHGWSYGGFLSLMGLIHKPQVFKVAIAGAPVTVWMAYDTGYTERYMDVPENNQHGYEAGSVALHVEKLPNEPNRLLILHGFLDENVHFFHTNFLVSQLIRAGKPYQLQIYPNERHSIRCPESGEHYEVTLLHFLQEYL

In the case of `COc1ccccc1-c1cn2c(-c3ccc(Cl)cc3Cl)c(CN)c(C)nc2n1`, the Ki (Dipeptidyl peptidase 9) is reported as > 10 µM.
For `Cc1cc2nc(C)c(CN)c(-c3ccc(Cl)cc3Cl)n2n1`, the Ki (Dipeptidyl peptidase 8) was > 30 µM and the Ki (Dipeptidyl peptidase 9) was > 30 µM.
With `Cc1nc2c(-c3ccccc3)cnn2c(-c2ccc(Cl)cc2Cl)c1CN` the Ki (Dipeptidyl peptidase 8) was > 30 µM and the Ki (Dipeptidyl peptidase 9) was > 30 µM.
`Cc1nc2cc(-c3ccccc3)nn2c(-c2ccc(Cl)cc2Cl)c1CN` was tested, and the Ki (Dipeptidyl peptidase 8) was > 30 µM, the Ki (Dipeptidyl peptidase 9) was > 20 µM and the IC50 (Cytochrome P450 1A2) was 6 µM. The “inhibition (INH)” value [1] was 95%, the IC50 (Cytochrome P450 2C19) was 3 µM and the IC50 (Cytochrome P450 2C9) was 12 µM. For the same molecule, the IC50 (Cytochrome P450 3A4) was 1 µM.
In the case of `CCC(=O)c1cnn2c(-c3ccc(Cl)cc3Cl)c(CN)c(C)nc12`, the Ki (Dipeptidyl peptidase 8) is reported as > 30 µM and the Ki (Dipeptidyl peptidase 9) is reported as > 30 µM.
`Cc1nc2cc(-c3ccco3)nn2c(-c2ccc(Cl)cc2Cl)c1CN` was tested, and the Ki (Dipeptidyl peptidase 8) was > 30 µM and the Ki (Dipeptidyl peptidase 9) was > 30 µM.
`Cc1nc2cc(-c3ccc(Cl)cc3)nn2c(-c2ccc(Cl)cc2Cl)c1CN` was tested, and the Ki (Dipeptidyl peptidase 9) was > 30 µM.
`Cc1ccc(-c2cc3nc(C)c(CN)c(-c4ccc(Cl)cc4Cl)n3n2)cc1` was tested, and the Ki (Dipeptidyl peptidase 8) was > 30 µM and the Ki (Dipeptidyl peptidase 9) was > 10 µM.
For `Cc1nc2nc(C)c(CN)c(-c3ccc(Cl)cc3Cl)n2n1`, the Ki (Dipeptidyl peptidase 8) was > 30 µM and the Ki (Dipeptidyl peptidase 9) was > 30 µM.
With `Cc1nc2nc(-c3ccccc3)nn2c(-c2ccc(Cl)cc2Cl)c1CN` the Ki (Dipeptidyl peptidase 8) was > 30 µM, the Ki (Dipeptidyl peptidase 9) was > 30 µM and the “inhibition (INH)” value [1] was 85%.
`COC(=O)c1nc2nc(C)c(CN)c(-c3ccc(Cl)cc3Cl)n2n1` was tested, and the Ki (Dipeptidyl peptidase 8) was > 30 µM and the Ki (Dipeptidyl peptidase 9) was > 30 µM.
With `Cc1nc2nc(C(=O)Nc3ccccc3)nn2c(-c2ccc(Cl)cc2Cl)c1CN` the Ki (Dipeptidyl peptidase 9) was > 10 µM.
`CCN(CC)c1nc2nc(C)c(CN)c(-c3ccc(Cl)cc3Cl)n2n1` was tested, and the Ki (Dipeptidyl peptidase 8) was > 30 µM and the Ki (Dipeptidyl peptidase 9) was > 30 µM.
`CCN(C)c1nc2nc(C)c(CN)c(-c3ccc(Cl)cc3Cl)n2n1` was tested, and the Ki (Dipeptidyl peptidase 8) was > 30 µM and the Ki (Dipeptidyl peptidase 9) was > 30 µM.
`COCCN(C)c1nc2nc(C)c(CN)c(-c3ccc(Cl)cc3Cl)n2n1` was tested, and the Ki (Dipeptidyl peptidase 9) was > 30 µM.
For `Cc1nc2nc(N3CCCC3)nn2c(-c2ccc(Cl)cc2Cl)c1CN`, the Ki (Dipeptidyl peptidase 8) was > 10 µM and the Ki (Dipeptidyl peptidase 9) was > 30 µM.
`Cc1nc2nc(N3CCOCC3)nn2c(-c2ccc(Cl)cc2Cl)c1CN` was tested, and the Ki (Dipeptidyl peptidase 9) was > 30 µM.
`Cc1nc2nc(N3CCSCC3)nn2c(-c2ccc(Cl)cc2Cl)c1CN` was tested, and the Ki (Dipeptidyl peptidase 8) was > 30 µM and the Ki (Dipeptidyl peptidase 9) was > 30 µM.
With `Cc1nc2nc(N3CCN(C(=O)OC(C)(C)C)CC3)nn2c(-c2ccc(Cl)cc2Cl)c1CN` the Ki (Dipeptidyl peptidase 8) was > 30 µM and the Ki (Dipeptidyl peptidase 9) was > 30 µM.
`Cc1nc2nc(N3CCNCC3)nn2c(-c2ccc(Cl)cc2Cl)c1CN` was tested, and the Ki (Dipeptidyl peptidase 8) was > 30 µM and the Ki (Dipeptidyl peptidase 9) was > 30 µM.
With `Cc1nc2nccn2c(-c2ccc(Cl)cc2Cl)c1CN` the Ki (Dipeptidyl peptidase 8) was > 30 µM and the Ki (Dipeptidyl peptidase 9) was > 30 µM.
With `Cc1nc2nc(-c3ccccc3)cn2c(-c2ccc(Cl)cc2Cl)c1CN` the Ki (Dipeptidyl peptidase 8) was > 30 µM, the Ki (Dipeptidyl peptidase 9) was > 30 µM and the IC50 (Cytochrome P450 1A2; read-out: IC50) was 19 µM. The “inhibition (INH)” value [1] was 74%, the IC50 (Cytochrome P450 2C19) was 13 µM and the IC50 (Cytochrome P450 2C9) was > 40 µM. The IC50 (Cytochrome P450 3A4) was 1 µM, the Activity (Mus musculus [2]) was 51% and the Activity (Mus musculus [3]) was 74%.
